Laboratory results from patent US20040106120A1, “Diagnosis and treatment of disease” (priority 2000, published 2004).

What was measured:
[1] = system: reconstituted human epidermis cultures (skin equivalents); test: Treatment of skin equivalents (reconstituted human epidermis cultures) for 16 hours, light microscopy histology; format: cell-based; settings: 16 hours at 37° C; for effect of cytokine on stratum corneum thickness of skin equivalent: 2.5 ng/ml added to medium; for effect of peptide on stratum corneum of skin equivalent: 6 μM peptide, 200 μl applied to surface, versus buffered salt solution
Protocol: (§1) 1 ml of room temperature SkinEthic maintenance medium is added to each well of 6-well tissue culture plates (one well per skin equivalent). The cell culture inserts containing the skin equivalents are removed from the agarose transportation medium using sterile forceps and placed in the wells ensuring no air bubbles are formed. The well plates are placed in a humid incubator at 37° C., 5% CO2. After 24 hours the medium is changed and the appropriate treatment is applied. 200 μl of each treatment is applied to the surface of the skin equivalent as follows: Control—buffered salt solution; 10% foetal bovine serum; 0.25% chymotrypsin; 6 μM Peptide 643.
All reagents are made up to the correct concentration in a buffered salt solution comprising the following in 1 litre: 0.142 g Na2HPO4, 1.802 g Glucose, 7.149 g HEPES, 0.224 g KCl, 7.597 g NaCl, pH 7.4.
Treatments are allowed to act on the cultures for 16 hours at 37° C.
The skin equivalents and membranes are cut from the cell culture insert using a scalpel. The equivalents are fixed in 10% formalin (3.7% formaldehyde) in phosphate buffered saline for 24 hours at 4° C. Samples are washed in 3 changes of PBS. The PBS is the decanted from the samples which are dehydrated in 3×5 minute changes of 70% ethanol, 2×5 minute changes of 95% ethanol and 2×5 minute changes of 100% ethanol. The samples are then placed in xylene for 5 minutes and then molten paraffin for infiltration for 5 minutes. The samples are occasionally agitated during each of the steps. The equivalents are then oriented in more molten paraffin in an embedding mould and allowed to set for 1 hour.
5 μm sections are taken of each block and collected on glass microscope slides. The slides are dried at 50° C. overnight.
The slides are racked and placed in xylene for 2×5 minute washes to remove any unwanted paraffin. The slides are then rehydrated by placing them for 5 minutes in each of the following; 2×100% ethanol, 1×95% ethanol, 1×70% ethanol. The slides are then rinsed in running tap water for 1 minute. Staining is with Gill's haematoxylin (2 minutes) followed by rinsing in water for 2 minutes then placing in 1% eosin for 5 minutes and rinsing briefly in water. The samples are dehydrated once more by placing in 70% ethanol for 30 seconds, 95% ethanol for 30 seconds and 2 changes of 100% ethanol for 1 and 2 minutes each. The slides are then placed in xylene for 1 minute before mounting coverslips with DPX mountant for microscopy.
Slides are examined under light microscope at using the 40×objective lens and typical images are captured onto the PC using Synoptics Acquis Pro.
as §1, with “applied.” for “applied. 200 μl of each treatment is applied to the surface of the skin equivalent as follows: Control—buffered salt solution; 10% foetal bovine serum; 0.25% chymotrypsin; 6 μM Peptide 643.”
200 μl of the following treatments are applied to the surface of the skin equivalents: (1) Control—buffered salt solution; (2) 6 μM Peptide 641; (3) 6 μM Peptide 642; (4) 6 μM Peptide643; (5) 6 μM Peptide 651; (6) 6 μM Peptide 653.
The following treatments are diluted from stock solutions (10 μg/ml TNF-α, 1 μg/m IL-1β) directly into 1 ml of medium and added to the well during the medium change: (7) 2.5 ng/ml TNF-α; and (8) 75 ng/ml IL-1β.

[2] = target: chymotrypsin (Bos taurus, UniProt P00766); test: Chymotrypsin proteolysis of synthetic corneodesmosin peptides; format: biochemical; settings: peptide exposed to chymotrypsin in appropriate buffer
Text: Peptides corresponding to fragments of corneodesmosin, and comprising amino acids at and around position 40 (L20815; corresponding to position 180 on the nucleotide sequence) are synthesised. The peptides are exposed to chymotrypsin in appropriate buffer, and the digestion products identified. Chymotrypsin is known to cleave the peptide bond C-terminal to a F, Y or W residue, but not C-terminal to an L residue.
Peptides P1 and P2 (size 38 amino acids, comprising L and F at position 40 of L20815 respectively) are exposed to chymotrypsin. Peptide P1 has the sequence PTRITSPNDPCL40[…], while peptide P2 has the sequence PTRITSPNDPCF40[…].
The above results are confirmed by using the ExPASy Molecular Biology Server at http://www.expasy.ch/.

[3] = system: psoriatic skin biopsy (stratum corneum); test: Treatment of skin biopsies from psoriatic patients with protease, transmission electron microscopy; set-up: species or system human; settings: 0.25% chymotrypsin, 16 hours at 37° C, versus untreated half
Protocol: All biopsies are carried out by a dermatologist in an operating theatre. Aseptic technique is employed and sterile/disposable equipment used throughout the procedure. Two skin biopsies are taken from the lower back of each patient, one from an area of active plaque psoriasis and the other from an uninvolved site at least 10 cm away. The lower back is cleaned with antiseptic solution and local anaesthetic introduced to the intended areas of biopsy. Ellipses approximately 1.5 cm by 0.5 cm are excised from both lesional and non-lesional skin and placed in a container with PBS solution. The wounds are sutured using catgut for deep sutures and ethilon for superficial sutures (employing two or three stitches per wound). After the operation the wounds are covered with a sterile dressing and the patient observed for 30 minutes before being allowed home. Sutures are removed two weeks later.
The following procedures are performed under aseptic conditions: The psoriatic skin biopsy is cut into 2 pieces using a sterile scalpel. One half of the biopsy is placed in 2 ml of 0.25% chymotrypsin (diluted from a 10×stock in skin maintenance medium, Skinethic) in one well of a 24-well plate. The other half is incubated in 2 ml of maintenance medium with no additions. […]
Ultrathin sections (70-90 nm) are cut on an ultramicrotome. […] Electron micrographs are recorded on Agfa Scientia 23D56 EM film.

Substance: IL-1β: cytokine purchased from Calbiochem
- effect of cytokine on stratum corneum thickness of skin equivalent [1]: increase in the thickness of the stratum corneum

Substance: NH2-cys-val-ser-pro-val-lys-ala-COOH (H-CVSPVKA-OH) [Peptide 643, fragment of SLPI (CVSPVKA)]
- effect of peptide on stratum corneum of skin equivalent [1]: thickening of the stratum corneum

Substance: NH2-leu-asp-pro-val-asp-COOH [Peptide 651]
- effect of peptide on stratum corneum of skin equivalent [1]: increase in the thickness of the stratum corneum

Substance: NH2-leu-asp-pro-val-asp-thr-pro-asn-pro-thr-arg-arg-lys-pro-gly-COOH [Peptide 653]
- effect of peptide on stratum corneum of skin equivalent [1]: increase in the thickness of the stratum corneum

Substance: NH2-met-glu-asn-ser-leu-gly-pro-phe-pro-gln-cys-COOH (H-MENSLGPFPQC-OH) [Peptide 641, fragment of Desmocollin 1 (…)]
- effect of peptide on stratum corneum of skin equivalent [1]: more permeable

Substance: NH2-ser-gly-lys-arg-asp-lys-ser-glu-glu-val-gln-cys-COOH (H-SGKRDKSEEVQC-OH) [Peptide 642, fragment of Desmoplakin (…)]
- effect of peptide on stratum corneum of skin equivalent [1]: more permeable

Substance: PTRITSPNDPCF40TGKGDSSGFSGSSSSGSSISSAR [peptide P2]
- products of proteolysis by chymotrypsin [2]: three small peptides

Substance: PTRITSPNDPCL40TGKGDSSGFSGSSSSGSSISSAR [peptide P1]
- products of proteolysis by chymotrypsin [2]: two products of proteolysis

Substance: TNF-α
- effect of cytokine on stratum corneum thickness of skin equivalent [1]: increase in the thickness of the stratum corneum

Substance: chymotrypsin
- effect of protease on stratum corneum barrier of skin equivalent ([1]; applied to surface, chymotrypsin 0.25%): degrades the barrier of the stratum corneum
- corneodesmosomes visible in stratum corneum [3]: far fewer corneodesmosomes are visible
- stratum corneum morphology (corneocyte layers) [3]: splitting of the layers of corneocytes (acantholysis)
